Experimental data published in PubChem BioAssay (NCI).
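Growth conditions: 96-well plates. Treatment: test compound, 48 hours, 5 concentrations. Analysis: linear interpolation between bracketing concentrations; unreached endpoints set to highest concentration. Here, GI50 denotes the concentration required for 50% inhibition of growth. The concentration for full growth arrest is given as TGI.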

Columns and labels:
Assay in all cases: NCI-60 cell line screen, 48 h
HCC-2998 colon = test system: HCC-2998 colon
A549 NSCLC = test system: A549 NSCLC
SNB-19 CNS = test system: SNB-19 CNS
SNB-75 CNS = test system: SNB-75 CNS
RXF 393 renal = test system: RXF 393 renal
DU-145 prostate = test system: DU-145 prostate
NCI-H226 lung = test system: NCI-H226 lung
NCI-H23 lung = test system: NCI-H23 lung
MDA-MB-435 = test system: MDA-MB-435
SW-620 colon = test system: SW-620 colon
M14 melanoma = test system: M14 melanoma
SF-295 CNS = test system: SF-295 CNS
SF-539 CNS = test system: SF-539 CNS
SK-OV-3 ovarian = test system: SK-OV-3 ovarian
EKVX NSCLC = test system: EKVX NSCLC
PC-3 prostate = test system: PC-3 prostate
OVCAR-4 ovarian = test system: OVCAR-4 ovarian
LOX IMVI melanoma = test system: LOX IMVI melanoma
MCF7 breast = test system: MCF7 breast
HS 578T breast = test system: HS 578T breast
ACHN renal = test system: ACHN renal
RPMI-8226 leukemia = test system: RPMI-8226 leukemia
SR leukemia = test system: SR leukemia
TK-10 renal = test system: TK-10 renal
HOP-62 NSCLC = test system: HOP-62 NSCLC
OVCAR-3 ovarian = test system: OVCAR-3 ovarian
SN12C renal = test system: SN12C renal
HCT-116 colon = test system: HCT-116 colon
SK-MEL-28 melanoma = test system: SK-MEL-28 melanoma
U251 CNS = test system: U251 CNS
SF-268 CNS = test system: SF-268 CNS
UO-31 renal = test system: UO-31 renal
KM12 colon = test system: KM12 colon
HCT-15 colon = test system: HCT-15 colon
NCI/ADR-RES ovarian = test system: NCI/ADR-RES ovarian
OVCAR-8 ovarian = test system: OVCAR-8 ovarian
SK-MEL-2 melanoma = test system: SK-MEL-2 melanoma
HL-60(TB) leukemia = test system: HL-60(TB) leukemia
K-562 leukemia = test system: K-562 leukemia
MOLT-4 leukemia = test system: MOLT-4 leukemia
786-0 renal = test system: 786-0 renal
T-47D breast = test system: T-47D breast
NCI-H522 lung = test system: NCI-H522 lung
UACC-62 melanoma = test system: UACC-62 melanoma
COLO 205 colon = test system: COLO 205 colon
SK-MEL-5 melanoma = test system: SK-MEL-5 melanoma
UACC-257 melanoma = test system: UACC-257 melanoma
HOP-92 NSCLC = test system: HOP-92 NSCLC
IGROV1 ovarian = test system: IGROV1 ovarian
CAKI-1 renal = test system: CAKI-1 renal
CCRF-CEM leukemia = test system: CCRF-CEM leukemia
MALME-3M melanoma = test system: MALME-3M melanoma
MDA-MB-231 breast = test system: MDA-MB-231 breast
A498 renal = test system: A498 renal
BT-549 breast = test system: BT-549 breast
HT29 colon = test system: HT29 colon
NCI-H460 lung = test system: NCI-H460 lung
OVCAR-5 ovarian = test system: OVCAR-5 ovarian

CCO/C=N/C1=C(C#N)C(c2ccc(F)cc2)c2sc3c(C)cccc3c2O1 (stereo unspecified)
GI50 (HCC-2998 colon): 421 nM | TGI (HCC-2998 colon): 12900 nM | GI50 (A549 NSCLC): 458 nM | TGI (A549 NSCLC): 18700 nM | GI50 (SNB-19 CNS): 452 nM | TGI (SNB-19 CNS): 16500 nM | GI50 (SNB-75 CNS): 114 nM | TGI (SNB-75 CNS): 2640 nM | GI50 (RXF 393 renal): 175 nM | TGI (RXF 393 renal): 550 nM | GI50 (DU-145 prostate): 434 nM | TGI (DU-145 prostate): 14200 nM | GI50 (NCI-H226 lung): 1290 nM | TGI (NCI-H226 lung): 12100 nM | GI50 (NCI-H23 lung): 517 nM | TGI (NCI-H23 lung): 14700 nM | GI50 (MDA-MB-435): 178 nM | TGI (MDA-MB-435): 609 nM | GI50 (SW-620 colon): 401 nM | TGI (SW-620 colon): 15800 nM | GI50 (M14 melanoma): 316 nM | TGI (M14 melanoma): 12200 nM | GI50 (SF-295 CNS): 250 nM | TGI (SF-295 CNS): 2800 nM | GI50 (SF-539 CNS): 243 nM | TGI (SF-539 CNS): 1540 nM | GI50 (SK-OV-3 ovarian): 834 nM | TGI (SK-OV-3 ovarian): 25500 nM | GI50 (EKVX NSCLC): 383 nM | TGI (EKVX NSCLC): 18300 nM | GI50 (PC-3 prostate): 386 nM | TGI (PC-3 prostate): 14800 nM | GI50 (OVCAR-4 ovarian): 1700 nM | TGI (OVCAR-4 ovarian): 24800 nM | GI50 (LOX IMVI melanoma): 626 nM | TGI (LOX IMVI melanoma): 14100 nM | GI50 (MCF7 breast): 271 nM | TGI (MCF7 breast): 13100 nM | GI50 (HS 578T breast): 325 nM | TGI (HS 578T breast): 14800 nM | GI50 (ACHN renal): 616 nM | TGI (ACHN renal): 14600 nM | GI50 (RPMI-8226 leukemia): 371 nM | TGI (RPMI-8226 leukemia): 11000 nM | GI50 (SR leukemia): 524 nM | TGI (SR leukemia): 60100 nM | GI50 (TK-10 renal): 11800 nM | TGI (TK-10 renal): 27500 nM | GI50 (HOP-62 NSCLC): 423 nM | TGI (HOP-62 NSCLC): 15800 nM | GI50 (OVCAR-3 ovarian): 379 nM | TGI (OVCAR-3 ovarian): 11900 nM | GI50 (SN12C renal): 534 nM | TGI (SN12C renal): 13900 nM | GI50 (HCT-116 colon): 375 nM | TGI (HCT-116 colon): 10400 nM | GI50 (SK-MEL-28 melanoma): 1400 nM | TGI (SK-MEL-28 melanoma): 20600 nM | GI50 (U251 CNS): 473 nM | TGI (U251 CNS): 15500 nM | GI50 (SF-268 CNS): 1740 nM | TGI (SF-268 CNS): 17300 nM | GI50 (UO-31 renal): 572 nM | TGI (UO-31 renal): 15900 nM | GI50 (KM12 colon): 389 nM | TGI (KM12 colon): 14700 nM | GI50 (HCT-15 colon): 336 nM | TGI (HCT-15 colon): 11500 nM | GI50 (NCI/ADR-RES ovarian): 220 nM | TGI (NCI/ADR-RES ovarian): 12700 nM | GI50 (OVCAR-8 ovarian): 499 nM | TGI (OVCAR-8 ovarian): 20300 nM | GI50 (SK-MEL-2 melanoma): 726 nM | TGI (SK-MEL-2 melanoma): 20700 nM | GI50 (HL-60(TB) leukemia): 340 nM | TGI (HL-60(TB) leukemia): 12900 nM | GI50 (K-562 leukemia): 281 nM | TGI (K-562 leukemia): > 62100 nM | GI50 (MOLT-4 leukemia): 560 nM | TGI (MOLT-4 leukemia): 32200 nM | GI50 (786-0 renal): 614 nM | TGI (786-0 renal): 12900 nM | GI50 (T-47D breast): 818 nM | TGI (T-47D breast): 66900 nM | GI50 (NCI-H522 lung): 214 nM | TGI (NCI-H522 lung): 11700 nM | GI50 (UACC-62 melanoma): 404 nM | TGI (UACC-62 melanoma): 19500 nM | GI50 (COLO 205 colon): 401 nM | TGI (COLO 205 colon): 2250 nM | GI50 (SK-MEL-5 melanoma): 487 nM | TGI (SK-MEL-5 melanoma): 2530 nM | GI50 (UACC-257 melanoma): 12900 nM | TGI (UACC-257 melanoma): 35600 nM | GI50 (HOP-92 NSCLC): 624 nM | TGI (HOP-92 NSCLC): 8000 nM | GI50 (IGROV1 ovarian): 379 nM | TGI (IGROV1 ovarian): 14900 nM | GI50 (CAKI-1 renal): 386 nM | TGI (CAKI-1 renal): 17200 nM | GI50 (CCRF-CEM leukemia): 359 nM | TGI (CCRF-CEM leukemia): 21300 nM | GI50 (MALME-3M melanoma): 10600 nM | TGI (MALME-3M melanoma): 24800 nM | GI50 (MDA-MB-231 breast): 531 nM | TGI (MDA-MB-231 breast): 17600 nM | GI50 (A498 renal): 261 nM | TGI (A498 renal): 1480 nM | GI50 (BT-549 breast): 751 nM | TGI (BT-549 breast): 5630 nM | GI50 (HT29 colon): 389 nM | TGI (HT29 colon): 12600 nM | GI50 (NCI-H460 lung): 367 nM | TGI (NCI-H460 lung): 11100 nM | GI50 (OVCAR-5 ovarian): 574 nM | TGI (OVCAR-5 ovarian): 16400 nM
